According to patent US10738071B2, “Polymorphic forms of sofosbuvir” (Mylan Laboratories Limited, priority 2016, dated 2020):

Test: physical and chemical stability of sofosbuvir form-M3 on storage (water content, PXRD, HPLC purity)
Assay type: physicochemical
Method: The crystalline sofosbuvir form-M3 disclosed herein may be characterized by X-ray powder diffraction. Therefore, samples of crystalline sofosbuvir form-M3 were analyzed on a PANalytical, X'pert PRO powder diffractometer equipped with goniometer of θ/θ configuration and X'Celerator detector. The Cu-anode X-ray tube was operated at 40 kV and 30 mA. The experiments were conducted over the 2θ range of 2.0°-50.0°, 0.030° step size and 50 seconds step time.
Water content was determined on an 841 Titrando Karl-Fischer titrator (Metrohm) by placing 40 mL dehydrated methanol in the titration vessel and titrating with a standardized reagent to reach the electrometric endpoint. A sample (e.g., 0.20 g sofosbuvir form-M3) was added, the mixture was stirred for 1 minute, then titrated to the endpoint with a Karl-Fischer reagent. For each determination, fresh methanol was used. The following calculations may be used to determine water content of each sample:
The physical and chemical stability of sofosbuvir form-M3 was determined by storing the samples at 25±2° C./60±5% relative humidity (RH) and at 40±2° C./75±5% RH for 6 months. The samples were tested to determine water content, detect degradation crystalline form by PXRD analysis, and measure purity by HPLC analysis. HPLC analysis was performed by the parameters listed below:
Chromatographic Conditions:
Injection volume: 20.0 μL
Column oven temperature: 45° C.
Sample temperature: 10° C.
Acquisition time: 25 minutes
Water: Acetonitrile (80:20) % v/v
As an example, Table 1 below discloses data collected on sofosbuvir form-M3 under various storage conditions.

[1] = stored at 25 ± 2° C./60 ± 5% RH, 1 months
[2] = stored at 25 ± 2° C./60 ± 5% RH, 2 months
[3] = stored at 25 ± 2° C./60 ± 5% RH, 3 months
[4] = stored at 25 ± 2° C./60 ± 5% RH, 6 months
[5] = stored at 25 ± 2° C./60 ± 5% RH, Initial
[6] = stored at 40 ± 2° C./75 ± 5% RH, 1 months
[7] = stored at 40 ± 2° C./75 ± 5% RH, 2 months
[8] = stored at 40 ± 2° C./75 ± 5% RH, 3 months
[9] = stored at 40 ± 2° C./75 ± 5% RH, 6 months
[10] = stored at 40 ± 2° C./75 ± 5% RH, Initial
[11] = up to six months at 25±2° C./60±5% RH and at 40±2° C./75±5% RH

SMILES: CC(C)OC(=O)[C@H](C)N[P@](=O)(OC[C@H]1O[C@@H](n2ccc(=O)[nH]c2=O)[C@](C)(F)[C@@H]1O)Oc1ccccc1 [sofosbuvir form-M3, (S)-isopropyl 2-((S)-(((2R,3R,4R,5R)-5-(2,4-dioxo3,4-dihydropyrimidin-1(2H)-yl)-4-fluoro-3-hydroxy-4-methyltetrahydrofuran-2yl)methoxy)-(phenoxy)phosphorylamino)propanoate]
- HPLC Purity [1]: 99.90%
- PXRD [1]: form-M3
- Water content [1]: 3.39%
- HPLC Purity [2]: 99.90%
- PXRD [2]: form-M3
- Water content [2]: 3.45%
- HPLC Purity [3]: 99.89%
- PXRD [3]: form-M3
- Water content [3]: 3.35%
- HPLC Purity [4]: 99.92%
- PXRD [4]: form-M3
- Water content [4]: 3.34%
- HPLC Purity [5]: 99.92%
- PXRD [5]: form-M3
- Water content [5]: 3.59%
- HPLC Purity [6]: 99.90%
- PXRD [6]: form-M3
- Water content [6]: 3.55%
- HPLC Purity [7]: 99.90%
- PXRD [7]: form-M3
- Water content [7]: 3.33%
- HPLC Purity [8]: 99.89%
- PXRD [8]: form-M3
- Water content [8]: 3.19%
- HPLC Purity [9]: 99.91%
- PXRD [9]: form-M3
- Water content [9]: 3.00%
- HPLC Purity [10]: 99.92%
- PXRD [10]: form-M3
- Water content [10]: 3.59%
- change in PXRD pattern on storage [11]: no significant change in PXRD pattern
- change in moisture content on storage [11]: no significant change in moisture content
- change in purity on storage [11]: no significant change in purity
